From PMC6001238, “Iterative Chemical Engineering of Vancomycin Leads to Novel Vancomycin Analogs With a High in Vitro Therapeutic Index” (Frontiers in Microbiology, 2018)
Converted amounts (≈) assume the structure as drawn. Where two headings read alike, the source gives them in different places.

What was measured:
E. faecalis VSE 1 = test: MIC, broth microdilution, vancomycin-sensitive E. faecalis (VSE 1); assay type: cell-based, Enterococcus faecalis
Summary of the method: (§1)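 Assayed by broth microdilution under CLSI antimicrobial testing rules. One case paired the analog or control drug with vancomycin at a 10 μM final concentration; water and inoculum-free broth were controls.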

E. faecalis VRE 6 = test: MIC, broth microdilution, vancomycin-resistant E. faecalis VRE 6 (VanA); assay type: cell-based, Enterococcus faecalis
Summary of the method: as §1

E. faecalis VRE 53 = test: MIC, broth microdilution, vancomycin-resistant E. faecalis VRE 53 (VanA); assay type: cell-based, Enterococcus faecalis
Summary of the method: as §1

E. faecalis VRE 29 = test: MIC, broth microdilution, vancomycin-resistant E. faecalis VRE 29 (VanA); assay type: cell-based, Enterococcus faecalis
Summary of the method: as §1

E. faecalis VRE 37 = test: MIC, broth microdilution, vancomycin-resistant E. faecalis VRE 37 (VanA); assay type: cell-based, Enterococcus faecalis
Summary of the method: as §1

[1] = tested on: Murine leukemia (L1210) cells; test: Cytostatic activity, L1210 cell proliferation; assay type: cell-based; conditions: Mus musculus, L1210, 48 h; mean ± SD of three experiments; highest concentration tested 250 µM; 2 days; read-out: Toxicity (IC50) L1210
Summary of the method: (§2)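 Suspensions (300,000–500,000 cells/mL) combined with equal volumes of diluted compound; 37°C; L1210 2 d / CEM 3 d / HeLa 4 d; counted by Coulter counter; IC50 vs untreated wells.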

[2] = tested on: human T-lymphocyte (CEM) cells; test: Cytostatic activity, CEM cell proliferation; assay type: cell-based; conditions: Homo sapiens, CCRF-CEM, 72 h; mean ± SD of three experiments; highest concentration tested 250 µM; 3 days; read-out: Toxicity (IC50) CEM
Summary of the method: as §2

[3] = tested on: human cervix carcinoma (HeLa) cells; test: Cytostatic activity, HeLa cell proliferation; assay type: cell-based; conditions: Homo sapiens, HeLa, 96 h; mean ± SD of three experiments; highest concentration tested 250 µM; 4 days; read-out: Toxicity (IC50) HeLa
Summary of the method: as §2

[4] = tested on: L1210, CEM and HeLa cell lines; test: Cytostatic activity, average or summary over L1210, CEM and HeLa; assay type: cell-based
Summary of the method: as §2

[5] = tested on: S. aureus VSSA (ATCC 6538); test: MIC, broth microdilution, vancomycin-sensitive S. aureus (VSSA/MSSA, ATCC 6538); assay type: cell-based, Staphylococcus aureus
Summary of the method: as §1

S. aureus VISA/HIP5827 = test: MIC, broth microdilution, vancomycin-intermediate S. aureus VISA HIP5827; assay type: cell-based, Staphylococcus aureus
Summary of the method: as §1

S. aureus VRSA = test: MIC, broth microdilution, vancomycin-resistant S. aureus (VRSA); assay type: cell-based, Staphylococcus aureus
Summary of the method: as §1

MRSA KS2 = test: MIC, broth microdilution, MRSA KS2; assay type: cell-based, Staphylococcus aureus
Summary of the method: as §1

MRSA KS6 = test: MIC, broth microdilution, MRSA KS6; assay type: cell-based, Staphylococcus aureus; conditions: Staphylococcus aureus MRSA KS6; read-out: MIC
Summary of the method: as §1

MRSA KS89 = test: MIC, broth microdilution, MRSA KS89; assay type: cell-based, Staphylococcus aureus
Summary of the method: as §1

MRSA KS1 = test: MIC, broth microdilution, MRSA KS1; assay type: cell-based, Staphylococcus aureus
Summary of the method: as §1

33 clinical VRE isolates = test: MIC against a set of 33 clinical VRE isolates (range, MIC50, TI); assay type: cell-based, Enterococcus faecalis
Summary of the method: as §1

[6] = tested on: 24 clinical MRSA isolates; test: MIC against a set of 24 clinical MRSA isolates (range, MIC50, TI); assay type: cell-based, Staphylococcus aureus
Summary of the method: as §1

[7] = tested on: Clostridium difficile ATJ ribotype 014/20; test: MIC, plate drop assay, C. difficile ATJ ribotype 014/20; assay type: cell-based
Summary of the method: (§3)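 Twofold dilution series of test compounds were spotted onto C. difficile lawns in 0.4% BHI agar containing added calcium and magnesium salts. After overnight anaerobic incubation at 37°C, growth inhibition was scored by spot clearing; triplicate runs, ultrapure water negative control.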

[8] = tested on: Clostridium difficile AIU ribotype 027; test: MIC, plate drop assay, C. difficile AIU ribotype 027; assay type: cell-based
Summary of the method: as §3

VE 148 (VanB) = test: MIC, VanB-type VRE strain VE 148; assay type: cell-based, Enterococcus; conditions: Enterococcus; VE 148, VanB; read-out: MIC
Summary of the method: as §1

VE 149 (VanB) = test: MIC, VanB-type VRE strain VE 149; assay type: cell-based, Enterococcus; conditions: Enterococcus; VE 149, VanB; read-out: MIC
Summary of the method: as §1

VE 150 (VanB) = test: MIC, VanB-type VRE strain VE 150; assay type: cell-based, Enterococcus; conditions: Enterococcus; VE 150, VanB; read-out: MIC
Summary of the method: as §1

VE 152 (VanB) = test: MIC, VanB-type VRE strain VE 152; assay type: cell-based, Enterococcus; conditions: Enterococcus; VE 152, VanB; read-out: MIC
Summary of the method: as §1

VE 157 (VanB) = test: MIC, VanB-type VRE strain VE 157; assay type: cell-based, Enterococcus; conditions: Enterococcus; VE 157, VanB; read-out: MIC
Summary of the method: as §1

VE 82 (VanC1) = test: MIC, VanC1-type VRE strain VE 82; assay type: cell-based, Enterococcus gallinarum; conditions: Enterococcus gallinarum; VE 82, VanC1; read-out: MIC
Summary of the method: as §1

MRSA = test: Minimum bactericidal concentration against MRSA; assay type: cell-based, Staphylococcus aureus
Procedure: Plates were incubated overnight at 37°C and colony growth was inspected.

Question: For CCCCCCCCCC(=O)N[C@@H](Cc1c[nH]c2ccccc12)C(=O)N[C@H](CC(N)=O)C(=O)N[C@@H](CC(=O)O)C(=O)N[C@@H]1C(=O)NCC(=O)N[C@@H](CCCN)C(=O)N[C@@H](CC(=O)O)C(=O)N[C@H](C)C(=O)N[C@@H](CC(=O)O)C(=O)NCC(=O)N[C@H](CO)C(=O)N[C@@H]([C@H](C)CC(=O)O)C(=O)N[C@@H](CC(=O)c2ccccc2N)C(=O)O[C@@H]1C [Daptomycin, reference compound], which MIC (E. faecalis VSE 1; VSE1, Enterococcus faecalis VSE 1 (vancomycin-sensitive), read-out: MIC) is on record?
Answer: > 6.25 µM

Question: What about the “MIC-fold improvement vs. vancomycin” value (E. faecalis VSE 1; VSE 1, ratio of MIC of vancomycin and MIC of analogue) of the same compound?
Answer: <0.2

Question: And the MIC (E. faecalis VRE 6; Enterococcus faecalis VRE 6 (vancomycin-resistant), read-out: MIC)?
Answer: 6.25 µM (≈ 10.1 µg/mL)

Question: And the “MIC-fold improvement vs. vancomycin” value (E. faecalis VRE 6; VRE 6, ratio of MIC of vancomycin and MIC of analogue)?
Answer: 32

Question: What about the MIC (E. faecalis VRE 53; Enterococcus faecalis VRE 53 (vancomycin-resistant), read-out: MIC) of the same compound?
Answer: 50 µM (≈ 81 µg/mL)

Question: And the “MIC-fold improvement vs. vancomycin” value (E. faecalis VRE 53; VRE 53, ratio of MIC of vancomycin and MIC of analogue)?
Answer: 8

Question: And the MIC (E. faecalis VRE 29; Enterococcus faecalis VRE 29 (vancomycin-resistant), read-out: MIC)?
Answer: 50 µM (≈ 81 µg/mL)

Question: What about the “MIC-fold improvement vs. vancomycin” value (E. faecalis VRE 29; VRE 29, ratio of MIC of vancomycin and MIC of analogue) of the same compound?
Answer: 8

Question: What about the MIC (E. faecalis VRE 37; Enterococcus faecalis VRE 37 (vancomycin-resistant), read-out: MIC) of the same compound?
Answer: 50 µM (≈ 81 µg/mL)

Question: What about the “MIC-fold improvement vs. vancomycin” value (E. faecalis VRE 37; VRE 37, ratio of MIC of vancomycin and MIC of analogue) of the same compound?
Answer: 8

Question: What about the IC50 [1] of the same compound?
Answer: > 250 µM

Question: And the IC50 [2]?
Answer: > 250 µM

Question: And the IC50 [3]?
Answer: > 250 µM

Question: What about the IC50 ([4]; average IC50 used for TI in Table S5, >250 entered as 250, read-out: IC50) of the same compound?
Answer: 250 µM

Question: What about the IC50 ([4]; average of L1210, CEM and HeLa, read-out: Toxicity (IC50) Average) of the same compound?
Answer: > 250 µM

Question: What about the MIC ([5]; ATCC6538, Staphylococcus aureus VSSA, read-out: MIC) of the same compound?
Answer: > 6.25 µM

Question: And the “MIC-fold improvement vs. vancomycin” value ([5]; VSSA, ratio of MIC of vancomycin and MIC of analogue)?
Answer: <0.1

Question: What about the MIC (S. aureus VISA/HIP5827; Staphylococcus aureus VISA/HIP5827, read-out: MIC) of the same compound?
Answer: > 12.5 µM

Question: What about the “MIC-fold improvement vs. vancomycin” value (S. aureus VISA/HIP5827; VISA/HIP5827, ratio of MIC of vancomycin and MIC of analogue) of the same compound?
Answer: <0.5

Question: And the MIC (S. aureus VRSA; Staphylococcus aureus VRSA, read-out: MIC)?
Answer: 12.5 µM (≈ 20.3 µg/mL)

Question: And the “MIC-fold improvement vs. vancomycin” value (S. aureus VRSA; VRSA, ratio of MIC of vancomycin and MIC of analogue)?
Answer: 8

Question: And the “MIC-fold improvement vs. vancomycin” value (MRSA KS2; MRSA KS2, ratio of MIC of vancomycin and MIC of analogue)?
Answer: 0.05

Question: What about the MIC (MRSA KS2; Staphylococcus aureus MRSA KS2, read-out: MIC) of the same compound?
Answer: 12.5 µM (≈ 20.3 µg/mL)

Question: What about the MIC (MRSA KS6) of the same compound?
Answer: > 12.5 µM

Question: And the “MIC-fold improvement vs. vancomycin” value (MRSA KS89; MRSA KS8 (head; KS89 in title), ratio of MIC of vancomycin and MIC of analogue)?
Answer: 0.1

Question: And the MIC (MRSA KS89; Staphylococcus aureus MRSA KS8 (head; KS89 in title), read-out: MIC)?
Answer: 6.25 µM (≈ 10.1 µg/mL)

Question: And the “MIC-fold improvement vs. vancomycin” value (MRSA KS1; MRSA KS1, ratio of MIC of vancomycin and MIC of analogue)?
Answer: 0.05

Question: What about the MIC (MRSA KS1; Staphylococcus aureus MRSA KS1, read-out: MIC) of the same compound?
Answer: 12.5 µM (≈ 20.3 µg/mL)

Question: And the “MIC Range” value (33 clinical VRE isolates; 33 clinical VRE isolates)?
Answer: 3.13 to 12.5 µM

Question: What about the MIC50 (33 clinical VRE isolates; Enterococcus, median MIC, 33 clinical VRE isolates, read-out: MIC50) of the same compound?
Answer: 6.25 µM (≈ 10.1 µg/mL)

Question: And the “TI (IC50/MIC50)” value (33 clinical VRE isolates; in vitro therapeutic index, VRE)?
Answer: 40

Question: What about the “MIC Range” value ([6]; 24 clinical MRSA isolates) of the same compound?
Answer: 0.78 to 12.5 µM

Question: And the MIC50 ([6]; Staphylococcus aureus, median MIC, 24 clinical MRSA isolates, read-out: MIC50)?
Answer: 0.78 µM (≈ 1.26 µg/mL)

Question: And the “TI (IC50/MIC50)” value ([6]; in vitro therapeutic index, MRSA)?
Answer: 321

Question: What about the “MIC-fold improvement vs. vancomycin” value ([7]; C. difficile ATJ ribotype 014/20) of the same compound?
Answer: 22

Question: What about the MIC ([7]; Clostridioides difficile, C. difficile ATJ ribotype 014/20, plate drop assay) of the same compound?
Answer: 1.56 µM (≈ 2.53 µg/mL)

Question: What about the “MIC-fold improvement vs. vancomycin” value ([8]; C. difficile AIU ribotype 027) of the same compound?
Answer: 29

Question: And the MIC ([8]; Clostridioides difficile, C. difficile AIU ribotype 027, plate drop assay)?
Answer: 1.56 µM (≈ 2.53 µg/mL)

Question: And the MIC (VE 148 (VanB))?
Answer: 25 µM (≈ 40.5 µg/mL)

Question: And the MIC (VE 149 (VanB))?
Answer: 25 µM (≈ 40.5 µg/mL)

Question: And the MIC (VE 150 (VanB))?
Answer: 25 µM (≈ 40.5 µg/mL)

Question: What about the MIC (VE 152 (VanB)) of the same compound?
Answer: 25 µM (≈ 40.5 µg/mL)

Question: What about the MIC (VE 157 (VanB)) of the same compound?
Answer: 12.5 µM (≈ 20.3 µg/mL)

Question: And the MIC (VE 82 (VanC1))?
Answer: 12.5 µM (≈ 20.3 µg/mL)

Question: What about the “MBC relative to MIC” value (MRSA) of the same compound?
Answer: MBC equaling their MIC values
